How the values were obtained:
patients with DFU [1] = test: Example 1: intralesional rhEGF in three treatment regimes, granulation, lesion closure and amputations in DFU patients; format: in vivo, human
Method: To do so, the reconstitution and dilution of the vial containing the drug was performed with 5 mL of water for injection. The administrations were made until 100% granulation of lesion, the closure of the lesion by grafting, or when a maximum of 8 weeks of treatment was attained.
Patients belonging to group 3 received the drug (75 μg/dose) three times a week, during the first week, by intralesional route. From the second week onward, the treatment continued with a dose of 225 μg, once a week. The treatment period was 8 weeks, although it was shorter if the complete closure of the lesion occurred earlier or if the ulcer reached a size smaller than 1 cm^2.
The formulated product was lyophilized in vials containing 25 μg or 75 μg of the active pharmaceutical ingredient. The composition also contained pharmaceutically acceptable excipients, such as stabilizers and pH regulators.
Patients in all three groups continued receiving conventional therapy, which was performed according to the DFU treatment standards established by the National Angiology Group of Cuba. This consists of: offloading of the lesion, metabolic control of the underlying disease with insulin (which replaces oral hypoglycemic agents), washing of the lesion with saline solution and mild soap substances, debridement, application of sterile dressings with gauze bandage, and antimicrobials, depending on the type of infectious germ present in the lesion.
The area of the DFU and the percentage of granulation were measured by a commercial system created for these purposes (Visitrak™, Smith & Nephew), which consists of grid transparent films and a device to measure the lesion by planimetry. This system has been previously validated (Sugama J, et al. J Clin Nurs 2007; 16 (7): 1265-1269). Using a permanent marker, the tracing of the contours of the lesion and the granulated regions, on the grid transparent film, was conducted.

[2] = Example 2: pharmacokinetic study, rhEGF levels in plasma of DFU patients after intralesional administration (ELISA); format: in vivo, human; settings: for Amount of rhEGF remaining in the area of the ulcer: bioavailability analysis; for AUC / t½: intralesional, plasma, immediately after the first administration
Method: A pharmacokinetic study was carried out, starting from blood samples taken from 31 patients. […] The most important parameters evaluated were the ‘Area under the Curve’ (AUC) and the half-life time (t½) among others. […] The treatment was performed for 8 weeks, or less time if the ulcer area reached a measure equal or less than 1 cm^2.
For the quantitation of this growth factor, the instructions of the kit manufacturer were followed.

[3] = system: patients of DFU with amputation criteria of the affected limb; test: Example 3: healing of DFU after intralesional rhEGF at different doses, three times a week then once a week, versus three times a week control; format: in vivo, human; settings: for Closure of the lesion (%) / Closure of the lesion, number of patients: three times a week then once a week, during follow-up; for Complete granulation response (%) / Complete granulation response, number of patients: at 8 weeks
Method: The route of administration was always the intralesional one. […] The doses administered per group were 2.5 μg, 25 μg, 50 μg and 75 μg. Seven patients were incorporated into the group that received 2.5 μg, 10 patients to the group that received the 25 μg dose; 13 patients to the group that received 50 μg and 18 patients in the group of 75 μg.
On the other hand, there was a group of 93 patients who were treated, during the whole period, with the dose of 75 μg three times a week. The period of treatment was 8 weeks.
Patients in all groups continued receiving the conventional therapy, which was performed according to the DFU standard treatment established by the National Angiology Group of Cuba, as summarized in Example 1.

[4] = system: DFU patients with no amputation criteria of the limb; test: Example 4: healing of DFU after intralesional rhEGF once a week plus conventional therapy; format: in vivo, human
Method: The intralesional treatment with this growth factor was performed once a week, for 8 weeks, or for less time, if the lesion closed up to a dimension equal to or less than 1 cm^2. Another group of patients received conventional therapy only, with the difference that the procedure was performed three times a week, until the complete closure of the lesion was achieved.
The patients in these series had no amputation criteria of the limb affected by the DFU at the time of the initial evaluation. […] As mentioned before, conventional therapy in all patients was performed according to the standards of treatment for DFU established by the National Angiology Group of Cuba.

patients with DFU [5] = test: Example 5: case reports, injectable rhEGF once a week in DFU patients with no criteria for amputation; format: in vivo, human; settings: 75 μg once a week for two weeks
Source text: The size of the lesion, after debridement, was 10 cm^2.
The ulcer base was covered with more than 75% of useful granulation tissue. The ulcer size was 7 cm^2.

DFU = settings: approved lyophilized medicament, intralesional; highest reduction in less complicated ulcers; cited from earlier work
[6] = Group 1: 75 μg/dose three times a week, n = 45
[7] = Group 2: 25 μg/dose three times a week intralesional, n = 45, at 3 weeks
[8] = Group 2: 25 μg/dose three times a week, n = 45
[9] = Group 2: 25 μg/dose three times a week, n = 45, end of treatment
[10] = Group 3: 75 μg three times a week first week, then 225 μg once a week, n = 25
[11] = Group 3: 75 μg three times a week first week, then 225 μg once a week, n = 25, end of treatment
[12] = Group 3: 75 μg three times a week in first week, then 225 μg once a week, n = 25, at 3 weeks
[13] = 25 μg three times a week then once a week, n = 10
[14] = 50 μg three times a week then once a week, n = 13, at 3 weeks
[15] = 75 μg three times a week then once a week, n = 18
[16] = Control Group: 75 μg three times a week for 8 weeks, n = 93, at 3 weeks
[17] = Control Group: 75 μg three times a week for 8 weeks, n = 93
[18] = 2.5 μg once a week plus conventional therapy, n = 10, between 8 and 12 weeks
[19] = 25 μg once a week plus conventional therapy, n = 15, between 8 and 12 weeks
[20] = 50 μg once a week plus conventional therapy, n = 15, between 8 and 12 weeks
[21] = 75 μg once a week plus conventional therapy, n = 20, between 8 and 12 weeks

recombinant human Epidermal Growth Factor [rhEGF]
Granulation Objective Response CR*+PR* (%) (patients with DFU [1]; Group 1: 75 μg/dose three times a week intralesional, n = 45, at 3 weeks): 75%
Granulation Objective Response CR*+PR*, number of patients (patients with DFU [1]; Group 1: 75 μg/dose three times a week intralesional, n = 45, at 3 weeks (>50% of lesion area covered by granulation tissue)): 34
Amputations, number of patients (patients with DFU [1]; [6]): 6
Lesion Closure, number of patients (patients with DFU [1]; [6]): 34
Granulation Complete Response CR (%) (patients with DFU [1]; Group 1: 75 μg/dose three times a week, n = 45, end of treatment): 80%
Granulation Complete Response CR, number of patients (patients with DFU [1]; Group 1: 75 μg/dose three times a week, n = 45, end of treatment (100% of lesion area granulated)): 36
Granulation Objective Response CR*+PR* (%) (patients with DFU [1]; [7]): 64%
Granulation Objective Response CR*+PR*, number of patients (patients with DFU [1]; [7]): 29
Amputations (%) (patients with DFU [1]; [8]): 22%
Lesion Closure, number of patients (patients with DFU [1]; [8]): 27
Granulation Complete Response CR (%) (patients with DFU [1]; [9]): 69%
Granulation Complete Response CR, number of patients (patients with DFU [1]; [9]): 31
Amputations, number of patients (patients with DFU [1]; [10]): 3
Lesion Closure, number of patients (patients with DFU [1]; [10]): 18
Granulation Complete Response CR (%) (patients with DFU [1]; [11]): 76%
Granulation Complete Response CR, number of patients (patients with DFU [1]; [11]): 19
Granulation Objective Response CR*+PR* (%) (patients with DFU [1]; [12]): 68%
Granulation Objective Response CR*+PR*, number of patients (patients with DFU [1]; [12]): 17
Amount of rhEGF remaining in the area of the ulcer ([2]; 25 μg dose): about 19 μg
AUC ([2]; 25 μg dose): 0.0851 ± 0.0502 ng·h/mL
t½ ([2]; 25 μg dose): 51 ± 46.8 min
Amount of rhEGF remaining in the area of the ulcer ([2]; 75 μg dose): ~58 µg
AUC ([2]; 75 μg dose): 0.1978 ± 0.0739 ng·h/mL
t½ ([2]; 75 μg dose): 39.6 ± 10.8 min
Amount of rhEGF remaining in the area of the ulcer ([2]; 225 μg dose): around 63 μg
AUC ([2]; 225 μg dose): 0.2886 ± 0.0894 ng·h/mL
t½ ([2]; 225 μg dose): 45 ± 12.6 min
Plasma rhEGF value after two hours of sample collection ([2]; independently of the dose received (25, 75, 225 μg)): returned to baseline levels
Closure of the lesion (%) ([3]; 2.5 μg group): 57%
Closure of the lesion, number of patients ([3]; 2.5 μg group): 4
Objective granulation response (%) ([3]; 2.5 μg three times a week then once a week, n = 7, at 3 weeks): (57%)
Complete granulation response (%) ([3]; 2.5 μg three times a week then once a week, n = 7): (71%)
Objective granulation response, number of patients ([3]; 2.5 μg three times a week until no amputation criterion, then once a week, n = 7, ≥75% of lesion area granulated at 3 weeks): 4
Objective granulation response, number of patients ([3]; 25 μg three times a week then once a week, n = 10, at 3 weeks): 6
Complete granulation response (%) [3, 13]: (70%)
Complete granulation response, number of patients [3, 13]: 7
Closure of the lesion (%) ([3]; 50 μg group): 69%
Closure of the lesion, number of patients ([3]; 50 μg group): 9
Objective granulation response (%) [3, 14]: (61%)
Objective granulation response, number of patients [3, 14]: 8
Complete granulation response (%) ([3]; 50 μg three times a week then once a week, n = 13): (77%)
Closure of the lesion (%) ([3]; 75 μg group): 72%
Objective granulation response (%) ([3]; 75 μg three times a week then once a week, n = 18, at 3 weeks): (72%)
Complete granulation response (%) [3, 15]: (83%)
Complete granulation response, number of patients [3, 15]: 15
Objective granulation response (%) [3, 16]: (77%)
Objective granulation response, number of patients [3, 16]: 72
Complete granulation response (%) [3, 17]: (85%)
Complete granulation response, number of patients [3, 17]: 79
Closure of the lesion (% of the patients) ([3]; control group, 75 μg three administrations per week): 81%
Reduction in the risk of amputation ([3]; new treatment schedule (three times a week then once a week) along with conventional therapy): more than 80%
Amputations ([3]; the four groups that differed in the rhEGF dose and the control group): below 12%
Closure of the Lesion No (%) [4, 18]: (40%)
Closure of the Lesion No, number of patients [4, 18]: 4
Closure of the Lesion Yes, number of patients ([4]; 2.5 μg once a week plus conventional therapy, n = 10, between 8 and 12 weeks after commencement): 6
Closure of the Lesion No (%) [4, 19]: (33%)
Closure of the Lesion Yes (%) [4, 19]: (67%)
Closure of the Lesion No (%) [4, 20]: (40%)
Closure of the Lesion No, number of patients [4, 20]: 6
Closure of the Lesion Yes, number of patients [4, 20]: 9
Closure of the Lesion No, number of patients [4, 21]: 4
Closure of the Lesion Yes (%) [4, 21]: (80%)
Closure of the Lesion Yes, number of patients [4, 21]: 16
Lesion closure, Patient A (patients with DFU [5]; Patient A, 10 cm^2 superficial lesion, after said time): complete closure of the lesion was attained
Time to closure of the lesion after the first application, Patient B (patients with DFU [5]; Patient B, 7 cm^2 deep lesion): 9 weeks
Granulation response, Patient B (patients with DFU [5]; Patient B, 7 cm^2 deep lesion, after said time): complete granulation response was obtained
Reduction of amputation rates (DFU): ≥ 70%

Reference: patent publication US20220168391A1, “USE OF EPIDERMAL GROWTH FACTOR IN DIABETIC FOOT ULCER TREATMENT” (Centro de Ingeniería Genética y Biotecnología, priority 2019, published 2022)
